Assay results from patent publication US7871797B2, “DNA encoding a bacterial protease for degrading gelatin and collagen” (Jellice Co., Ltd., priority 2003, dated 2011).
Like-named read-outs stand apart in the source and are kept apart here. Starred links: 1 amine or outer side, 2 acyl side, 3 side chain; linkers in the order of their positions; H or OH if unused. Non-standard residues stand in square brackets, D forms with d. No end group written: not given here. *: point of attachment. K(DNP) = O=C([C@H](CCCCNc1ccc([N+](=O)[O-])cc1[N+](=O)[O-])N[*:1])[*:2]; Dnp = O=[N+]([O-])c1ccc(*)c([N+](=O)[O-])c1; Benzoyl(2-NHMe) = CNc1ccccc1C(=O)*

Tests used:
[1] = system: enzyme (protease) of the present invention; assay type: biochemical, Aureobacterium sp. MIM-CG-9535-I
Method: Reagents in the form of o-phenanthroline, EDTA, EGTA, L-cysteine, 2-mercaptoethanol, N-ethylmaleimide, antipain, leupepsin, E-64, phosphoramidon, trypsin inhibitor, chymostatin, TCPK, PMSF, and iodoacetamide were employed as inhibitors.
Each of the reagents was mixed with the synthetic substrate after which the enzyme was added. The degradation reaction was conducted for 30 min at 37° C. and the enzymatic activity was measured. Adopting the case where no inhibitor was added as 100 percent, the relative residual enzymatic activity was calculated.

[2] = system: protease described in Japanese Patent Application Publication No. 2000-102381; conditions: protease of JP 2000-102381; cited from earlier work
[3] = system: enzyme (protease) of the present invention; assay: Cutting activity (specific protease activity) on fluorescence-labeled synthetic peptides; assay type: biochemical, Aureobacterium sp. MIM-CG-9535-I; conditions: for Present or Absent of Specific degradation activity: fluorescence-labeled peptides with varied peptide chain; for Protease cutting activity (degradation of synthetic substrate), Enzyme of the present invention: 100 microgram labeled peptide, 1 microgram protease, 10 min at 37° C. in the dark
Text: Fluorescence-labeled peptides having the amino acid sequences denoted by (1) to (3) below are synthesized by the usual methods. Specifically, a fluorescent substance is attached as label on one side of the cutting site of a peptide having one of the amino acid sequences listed below, and a light-extinguishing substance is attached on the other side. Only when the labeled peptide has been cleaved is florescence detected. No fluorescence is detected even when employed as substrate for an enzyme not having cutting activity on the amino acid sequences given below. The substances used to label the peptide are not specifically limited other than that they be fluorescent and light-extinguishing substances. For example, N-methylanthranic acid can be employed as the fluorescent substance, and a dinitrophenyl group can be employed as the light-extinguishing substance.
To determine specific protease activity in the present invention, a fluorescence-labeled synthetic peptide, obtained by labeling a peptide having one of the amino acid sequences denoted by (1) to (3) above with N-methylanthranic acid on one end and labeling the other end thereof with a dinitrophenyl group, is employed as substrate and incubated with a prescribed quantity of enzyme for a prescribed period in the dark. Subsequently, the product is separated by reverse-phase chromatography and the fluorescent intensity of the separated product is measured to determine cutting activity.
Nma/Dnp florescence-labeled peptides (excitation wavelength 340 nm, fluorescence wavelength 440 nm) having the amino acid sequences of (1) to (3) below labeled on one end with N-methylanthranic acid and on the other end with a dinitrophenyl group were synthesized with a peptide synthesizer by the usual method.
Employing as substrate one of the fluorescence-labeled synthetic peptides obtained, cutting activity was measured under the following conditions.
(§1) A 100 microgram quantity of fluorescence-labeled synthetic peptide was adjusted to 0.2 mg/mL with 10 mM Tris buffer solution, 1 microgram of the above protease of the present invention was added, and the mixture was incubated for 10 min at 37° C. in the dark. The enzyme reaction solution obtained was subjected to reverse-phase HPLC using TSKgel® ODS-80Ts (silica-based, reverse phase chromatography resin; Tosoh Corp.) from 0.1 percent TFA to 80 percent acetonitrile-0.1 percent TFA at a flow rate of 1 mL/min and a gradient of 40 min to separate the degraded peptides. Employing A215 and a fluorescence spectrometer for high-performance liquid chromatography made by Shimatsu Corp., fluorescent intensity was measured at an excitation wavelength of 340 nm and a fluorescence wavelength of 440 nm.
The structure of the peptide chain was varied in the amino acid sequence of (1) above, fluorescence-labeled synthetic peptides were synthesized in the same manner as above, and cutting activity was measured in the same manner as above to verify the amino acids required for the above specific degradation activity.

[4] = system: enzyme described in Japanese Patent Application Publication No. 2000-102381; assay: Cutting activity on fluorescence-labeled synthetic peptides, comparison enzyme; assay type: biochemical, Aureobacterium; conditions: identical conditions: 10 min at 37° C. in the dark
Method: as §1
For comparison, the cutting activity of the enzyme described in the above-cited patent application publication (Japanese Patent Application Publication No. 2000-102381) was measured under identical conditions.

[5] = system: protease described in Japanese Patent Application Publication No. 2000-102381; conditions: protease of JP 2000-102381; cited from earlier work; remark: listed apart in the source
[6] = Temperature stability of the enzyme; assay type: physicochemical; conditions: then 30 min at 37° C. with substrate
Method: i) Temperature Stability • The enzyme was left standing for one hour at various temperatures of from 0 to 60° C. and subsequently reacted with a synthetic substrate for 30 min at 37° C. Enzyme activity was then measured.

[7] = inhibitor 20 mM, 30 min at 37° C., no inhibitor = 100 percent
[8] = inhibitor 0.05 mM, 30 min at 37° C., no inhibitor = 100 percent

CCN1C(=O)C=CC1=O [N-Ethylmaleimide, N-ethylmaleimide]
Residual activity (%) [1, 7]: 79%
Enzyme inhibition [2]: not

Pro-Ala-Gly-Phe-Ala-Gly-Pro (PAGFAGP; also: fluorescent label, type and site not given here) [PAG FAGP, fluorescence-labeled synthetic peptide, single letter code]
Present or Absent of Specific degradation activity [3]: Present

Nma-Gly-Pro-Ala-Gly-Phe-Ala-Gly-Pro-Lys-(DNP)r-NH2 ({Benzoyl(2-NHMe)}-GPAGFAGP-{K(DNP)-dR-NH2}; SMILES CNc1ccccc1C(=O)NCC(=O)N1CCC[C@H]1C(=O)N[C@@H](C)C(=O)NCC(=O)N[C@@H](Cc1ccccc1)C(=O)N[C@@H](C)C(=O)NCC(=O)N1CCC[C@H]1C(=O)N[C@@H](CCCCNc1ccc([N+](=O)[O-])cc1[N+](=O)[O-])C(=O)N[C@H](CCCNC(=N)N)C(N)=O) [Gly-Pro-Ala-Gly-↓-Phe-Ala-Gly-Pro, fluorescence-labeled synthetic substrate]
Protease cutting activity (degradation of synthetic substrate), Enzyme of patent application publication [4]: (X) Does not degrade
Protease cutting activity (degradation of synthetic substrate), Enzyme of the present invention [3]: (◯) Degrades
Present or Absent of Specific degradation activity [3]: Present

GPAG F: fluorescence-labeled synthetic peptide, single letter code (GPAGF; also: fluorescence label, site not given here)
Present or Absent of Specific degradation activity [3]: Absent

O=C(O)CN(CCN(CC(=O)O)CC(=O)O)CC(=O)O [EDTA, ethylenediamine tetraacetic acid]
Residual activity (%) [1]: 93%
Enzyme inhibition [2]: not

AG FAGP: fluorescence-labeled synthetic peptide, single letter code (AGFAGP; also: fluorescence label, site not given here)
Present or Absent of Specific degradation activity [3]: Absent

OCCS [2-ME, 2-mercaptoethanol]
Residual activity (%) [1, 7]: 73%

G FAGP: fluorescence-labeled synthetic peptide, single letter code (GFAGP; also: fluorescence label, site not given here)
Present or Absent of Specific degradation activity [3]: Absent

O=C(O)CN(CCOCCOCCN(CC(=O)O)CC(=O)O)CC(=O)O [EGTA]
Residual activity (%) ([1]; inhibitor 10 mM, 30 min at 37° C., no inhibitor = 100 percent): 68%

DNP-Pro-Gln-Gly-Ile-Ala-Gly-Gln-D-Arg (Dnp-PQGIAGQ[dR]) [synthetic collagenase substrate]
Degradation activity [5]: only slight degradation activity

NC(=O)CI [Iodoacetamide, iodoacetamide]
Residual activity (%) [1, 7]: 77%
Enzyme inhibition [2]: not

N[C@@H](CS)C(=O)O [L-Cys, L-cysteine]
Residual activity (%) [1, 7]: 0%
Enzyme inhibition [2]: inhibited

O=S(=O)(F)Cc1ccccc1 [PMSF, phenylmethanesulfonyl fluoride]
Residual activity (%) [1, 7]: 84%
Enzyme inhibition [2]: not

casein
Degradation activity [5]: exhibits degradation activity

Nma-Gly-Pro-Gln-Gly-Phe-Gln-Gly-Pro-Lys-(DNP)r-NH2 ({Benzoyl(2-NHMe)}-GPQGFQGP-{K(DNP)-dR-NH2}; SMILES CNc1ccccc1C(=O)NCC(=O)N1CCC[C@H]1C(=O)N[C@@H](CCC(N)=O)C(=O)NCC(=O)N[C@@H](Cc1ccccc1)C(=O)N[C@@H](CCC(N)=O)C(=O)NCC(=O)N1CCC[C@H]1C(=O)N[C@@H](CCCCNc1ccc([N+](=O)[O-])cc1[N+](=O)[O-])C(=O)N[C@H](CCCNC(=N)N)C(N)=O) [Gly-Pro-Gln-Gly-↓-Phe-Gln-Gly-Pro, fluorescence-labeled synthetic substrate]
Protease cutting activity (degradation of synthetic substrate), Enzyme of patent application publication [4]: (X) Does not degrade
Protease cutting activity (degradation of synthetic substrate), Enzyme of the present invention [3]: (◯) Degrades

Nma-Thr-Gln-Ser-Leu-Val-Thr-Pro-Lys-(DNP)r-NH2 [Gln-Thr-Gln-Ser-↓-Leu-Val-Thr-Pro]
Protease cutting activity (degradation of synthetic substrate), Enzyme of patent application publication [4]: (X) Does not degrade
Protease cutting activity (degradation of synthetic substrate), Enzyme of the present invention [3]: (◯) Degrades

c1cnc2c(c1)ccc1cccnc12 [o-Phenanthroline, o-phenanthroline]
Residual activity (%) ([1]; inhibitor 2 mM, 30 min at 37° C., no inhibitor = 100 percent): 0%
Enzyme inhibition [2]: inhibited

CC(C)C[C@H](NC(=O)[C@@H](NC(=O)N[C@@H](Cc1ccccc1)C(=O)O)[C@@H]1CCN=C(N)N1)C(=O)N[C@H](C=O)Cc1ccccc1 [Chymostatin, chymostatin]
Residual activity (%) [1, 8]: 85%

CC(C)C[C@H](NP(=O)(O)O[C@@H]1O[C@@H](C)[C@H](O)[C@@H](O)[C@H]1O)C(=O)N[C@@H](Cc1c[nH]c2ccccc12)C(=O)O [Phosphoramidon, phosphoramidon]
Residual activity (%) [1, 8]: 91%

CC(C)C[C@H](NC(=O)[C@H]1O[C@@H]1C(=O)O)C(=O)NCCCCN=C(N)N [E-64]
Residual activity (%) [1, 8]: 95%

DNP-Gln-Gly-Ile-Ala-Gly-Gln-D-Arg (Dnp-QGIAGQ[dR]) [synthetic substrate]
Degradation activity [5]: no degradation activity

GPAG FA: fluorescence-labeled synthetic peptide, single letter code (GPAGFA; also: fluorescence label, site not given here)
Present or Absent of Specific degradation activity [3]: Absent

Cc1ccc(S(=O)(=O)N[C@@H](Cc2ccccc2)C(=O)CCl)cc1 [TCPK]
Residual activity (%) ([1]; inhibitor 0.1 mM, 30 min at 37° C., no inhibitor = 100 percent): 95%

CC(=O)N[C@@H](CC(C)C)C(=O)N[C@@H](CC(C)C)C(=O)N[C@H](C=O)CCCNC(=N)N [Leupepsin, leupepsin]
Residual activity (%) [1, 8]: 92%

GPAG FAG: fluorescence-labeled synthetic peptide, single letter code (GPAGFAG; also: fluorescence label, site not given here)
Present or Absent of Specific degradation activity [3]: Absent

Pro-Gln-Gly-Ile-Ala-Gly-Gln (PQGIAGQ; also: fluorescence label, site not given here) [Pro-Gln-Gly-↓-Ile-Ala-Gly-Gln, fluorescence-labeled synthetic substrate degraded by the enzyme of the earlier publication]
Protease cutting activity (degradation of synthetic substrate), Enzyme of patent application publication [4]: (◯) Degrades
Protease cutting activity (degradation of synthetic substrate), Enzyme of the present invention [3]: (X) Does not degrade

B1: protease of the present invention: protease of molecular weight 21,000±1,000 from Aureobacterium sp. MIM-CG-9535-I cutting specific Gly-Phe and Ser-Leu sites (protein, listed as Aureobacterium sp.)
chain: LIVNTVNSIDDKWSDAQASALTYCVSTAFGARHADVVSAMESGAALWEAASSKIDFIYDSSADANCTTRNNAVLFSVEPVQTTQYIARAFFPSTAPRLQNVLIDDSIWTPGSSWTPTNVLGHELGHVLGFRHEHTRPEAGTCFEDDNWRPLTPYDSSSIMHYPQCNGSSADLSMTSVDTDGVVALYGN
Temperature stability: residual activity ([6]; left standing one hour at 30° C.): about half
Temperature stability ([6]; left standing one hour at 40° C. and above): nearly deactivated
